Test results: patent US20240409542A1, “NOVEL COMPOUNDS” (Sitryx Therapeutics Limited, priority 2021, published 2024)
Values after ≈ are worked out from the molar mass of the structure shown. Marks after values point to notes of the source that are not given here.

Legend:
recombinant human PKLR = recombinant human PKLR (Homo sapiens (Human), UniProt P30613); experiment: Human PKLR activation assay (Kinase-Glo Plus luminescence); settings: for Emax: read-out: hPKLR Emax (%)
Experimental: Compound activation of recombinant human PKLR pyruvate kinase activity was determined by biochemical assay. N-terminal His-tagged enzyme was sourced from R&D Systems and its substrates phosphoenolpyruvate (PEP) and ADP from Sigma-Aldrich and 2BScientific Ltd, respectively. The Kinase-Glo® Plus luminescence assay was from Promega. All other reagents were from Sigma-Aldrich. Test Compounds were prepared as 10 mM DMSO stocks and dilution series prepared in DMSO for direct dilution into Assay Buffer comprising 50 mM imidazole, 50 mM KCl, 7 mM MgCl2, 0.01% Tween20, 0.05% BSA (pH 7.2).
Human PKLR was diluted into Assay Buffer to a final concentration of 5 pM. Enzyme-Assay Buffer mix was dispensed into 384-well shallow-well white-walled plates and Test Compounds added by acoustic dispense (Echo®, Labcyte Inc).

[1] = Kinetic aqueous solubility; settings: PBS pH 7.4, 200 μM (2% DMSO), RT; for solubility kinetic at 1.5 h: phosphate buffered saline (PBS) pH 7.4, pH 7.4, aqueous buffer, kinetic from dmso stock, Kinetic solubility (Ksol), (μg/ml)
Experimental: Phosphate buffered saline (PBS) pH 7.4 was prepared using PBS tablets as per the manufacturer's instructions. Compounds and marker stocks are prepared at 10 mM in DMSO.
Compounds were incubated at 200 μM (2% DMSO) in Millipore—MSS LB PC 10 or Porvair—ref: 36004 plates in the presence of the prepared PBS pH 7.4 solution for 1.5 h, at RT, with gentle shaking. […] The samples were then analysed in a 96 well UV Star analysis plate on a plate reader from 220 nm to 500 nm at 10 nm increments.
The concentration of the samples was calculated against the standard curves.

recombinant human PKM2 = recombinant human PKM2 (Homo sapiens (Human), UniProt P14618); experiment: Human PKM2 activation assay (Kinase-Glo Plus luminescence); assay type: biochemical; settings: for EC50: activation of recombinant human PKM2, 4-parameter logistic fit, read-out: hPKM2 EC50; for Emax: read-out: hPKM2 Emax (%)
recombinant human PKM2, sequence (P14618 whole entry): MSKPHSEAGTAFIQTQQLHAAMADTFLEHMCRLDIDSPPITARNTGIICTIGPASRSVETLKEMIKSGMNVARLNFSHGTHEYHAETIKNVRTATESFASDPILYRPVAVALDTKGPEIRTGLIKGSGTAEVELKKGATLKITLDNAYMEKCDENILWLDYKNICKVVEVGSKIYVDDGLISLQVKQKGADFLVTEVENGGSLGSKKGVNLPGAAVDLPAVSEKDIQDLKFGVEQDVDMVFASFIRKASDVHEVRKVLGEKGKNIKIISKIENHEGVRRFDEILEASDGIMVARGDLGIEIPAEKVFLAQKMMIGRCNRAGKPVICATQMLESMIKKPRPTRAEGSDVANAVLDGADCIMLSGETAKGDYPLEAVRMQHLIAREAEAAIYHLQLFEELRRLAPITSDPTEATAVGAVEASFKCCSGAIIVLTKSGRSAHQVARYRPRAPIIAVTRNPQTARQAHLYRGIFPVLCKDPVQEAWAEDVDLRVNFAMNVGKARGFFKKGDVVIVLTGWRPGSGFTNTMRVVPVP
Experimental: Compound activation of recombinant human PKM2 pyruvate kinase activity was determined by biochemical assay. N-terminal His-tagged hPKM2 was sourced from R&D Systems and its substrates phosphoenolpyruvate (PEP) and ADP from Sigma-Aldrich and 2BScientific Ltd, respectively. The Kinase-Glo® Plus luminescence assay was from Promega. All other reagents were from Sigma-Aldrich. Test Compounds were prepared as 10 mM DMSO stocks and dilution series prepared in DMSO for direct dilution into Assay Buffer comprising 50 mM imidazole, 50 mM KCl, 7 mM MgCl2, 0.01% Tween20, 0.05% BSA (pH 7.2).
Human PKM2 was diluted into Assay Buffer comprising 50 mM imidazole, 50 mM KCl, 7 mM MgCl2, 0.01% Tween20, 0.05% BSA (pH 7.2) to a final concentration of 5 pM. Enzyme-Assay Buffer mix was dispensed into a 384-well shallow-well white-walled plate (PerkinElmer) and Test Compounds added by acoustic dispense (Echo®, Labcyte Inc.).
After 60 minutes' incubation on an orbital shaker (300 rpm, 26° C.), enzyme activity was quantified by the luminescent detection of generated ATP. Kinase-Glo® Plus reagent was added to each well and the plates incubated for a further 15 minutes on an orbital shaker in the dark (300 rpm, 26° C.) before luminescence measurement on a plate reader (PHERAstar® FSX, BMG Labtech).
EC50 and Emax values were determined from 4-parameter logistic fits of compound concentration-response curves.

A549 cells = experiment: A549 proliferation assay in low-serine medium (CellTiter-Glo); assay type: cell-based; settings: Homo sapiens, 72 h, 3 days, low-serine medium (20 μM L-serine)
Experimental: The effect of compounds of Formula (I) on A549 cell proliferation in low-serine medium was assessed using a luminescence assay of viable cell number (CellTiter-Glo® 2.0, Promega) duplexed with a fluorescent cytotoxicity assessment (CellTox™ Green, Promega). Cell culture reagents were from ThermoFisher unless specified otherwise. Assay reagents were from Sigma-Aldrich unless specified otherwise. Test Compounds were prepared as 10 mM DMSO stocks and dilution series prepared in DMSO for direct dilution into culture medium.
Cells were passaged every 3-4 days at 80-90% confluence. The cell monolayer was washed twice with room-temperature Ca^2+/Mg-free PBS and 4 ml room-temperature trypsin-EDTA added to the flask. After 5 minutes' incubation (37° C., 5% CO2) to detach cells, trypsin was quenched with 13 ml warmed complete growth medium and the cells harvested and diluted to 2.4×10^4 cells/ml for dispensing into 384-well clear-bottom black-walled plates (600 cells/well).
Following overnight incubation, growth medium was aspirated from each well and the cells washed twice with Assay Medium comprising Basal Medium Eagle supplemented with 3% heat-inactivated dialysed FBS plus 2 mM L-glutamine plus 20 μM L-serine (Sigma-Aldrich). After aspiration of the final wash medium, Assay Medium containing Test Compound was added to each well. DMSO vehicle controls were included on each plate.
Cells were incubated for 3 days in a humidified incubator (37° C., 5% CO2) at which point CellTox™ Green and CellTiter-Glo® reagents were prepared according to the manufacturer's instructions. Triton-X was added to HIGH wells for cytotoxicity determination and the plate incubated for 30 minutes (20° C., ambient humidity and pCO2). CellTox™ Green reagent was added to each well and the plate covered, placed on an orbital shaker @450 rpm for 2 minutes, and incubated in the dark for 15 minutes (20° C., ambient humidity and pCO2). Endpoint fluorescence was measured using a plate reader (PHERAstar® FSX, BMG Labtech).
Following cytotoxicity determination, CellTiter-Glo® reagent was added to each well and the plate placed on an orbital shaker @450 rpm for 2 minutes to lyse cells. Plates were incubated in the dark for 15-30 minutes (20° C., ambient humidity and pCO2) prior to endpoint luminescence measurement (PHERAstar® FSX, BMG Labtech).
Proliferation was calculated by normalizing luminescence signals to LOW controls obtained from a parallel plate processed at the time of Test Compound challenge and HIGH (DMSO vehicle) wells from the compound plate. IC50 values were determined from a 4-parameter logistic fit of compound concentration-response curves.

recombinant human PKLR, sequence (P30613 whole entry): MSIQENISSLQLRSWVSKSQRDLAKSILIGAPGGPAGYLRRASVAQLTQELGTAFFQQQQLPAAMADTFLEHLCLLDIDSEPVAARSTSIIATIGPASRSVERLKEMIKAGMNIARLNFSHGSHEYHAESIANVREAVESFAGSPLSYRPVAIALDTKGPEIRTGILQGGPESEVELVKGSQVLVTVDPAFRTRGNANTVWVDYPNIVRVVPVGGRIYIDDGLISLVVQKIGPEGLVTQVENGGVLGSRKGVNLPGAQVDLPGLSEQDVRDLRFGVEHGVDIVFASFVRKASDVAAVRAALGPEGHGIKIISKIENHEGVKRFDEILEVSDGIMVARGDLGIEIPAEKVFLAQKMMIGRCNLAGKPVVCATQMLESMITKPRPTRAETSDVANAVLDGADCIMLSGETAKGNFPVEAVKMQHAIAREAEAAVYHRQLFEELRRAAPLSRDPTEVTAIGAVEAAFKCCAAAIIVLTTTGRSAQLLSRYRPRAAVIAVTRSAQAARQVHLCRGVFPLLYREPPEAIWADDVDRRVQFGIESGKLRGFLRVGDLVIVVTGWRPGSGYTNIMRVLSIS

| EC50 (recombinant human PKLR) [nM] | Emax (recombinant human PKLR) [%] | solubility kinetic at 1.5 h [1] [µg/mL] | EC50 (recombinant human PKM2) [nM] | Emax (recombinant human PKM2) [%] | IC50 (A549 cells) [nM] | Kinetic solubility (Ksol); ([1]; 1.5 h) [µg/mL] | Kinetic solubility (Ksol); (μg/ml) ([1]; 1.5 h) | Structure (SMILES) |
| --- | --- | --- | --- | --- | --- | --- | --- | --- |
| 43.5 to 60 | 90 to 100 | > 82.5 | 71 | 100 | – | – | – | Cn1c2c(c3cnn(Cc4c[nH]c5cnccc45)c(=O)c31)CCN(S(C)(=O)=O)C2 [Example 36, 3-((1H-pyrrolo[2,3-c]pyridin-3-yl)methyl)-5-methyl-7-(methylsulfonyl)-3,5,6,7,8,9-hexahydro-4H-pyrido[4′,3′:4,5]pyrrolo[2,3-d]pyridazin-4-one] |
| > 320 | < 90 | > 70.3 | 1740 | 83.1 | 25.4 | – | – | CC(=O)N1CCc2c(n(C)c3c(=O)n(Cc4cccc(N)c4)ncc23)C1 [Example 8, 7-acetyl-3-(3-aminobenzyl)-5-methyl-3,5,6,7,8,9-hexahydro-4H-pyrido [4′,3′:4,5]pyrrolo[2,3-d]pyridazin-4-one] |
| > 320 | 90 to 100 | 17.1 (≈ 36.4 µM) | 4680 | 72 | 117 | – | – | Cc1ncc(S(=O)(=O)N2CCc3c(n(C)c4c(=O)n(Cc5cccc(N)c5)ncc34)C2)s1 [Example 10, 3-(3-aminobenzyl)-5-methyl-7-((2-methylthiazol-5-yl)sulfonyl)-3,5,6,7,8,9-hexahydro-4H-pyrido[4′,3′:4,5]pyrrolo[2,3-d]pyridazin-4-one] |
| 60 to 320 | 100 to 117 | 72.2 (≈ 186 µM) | 346 | 107 | 0.9 | – | – | Cn1c2c(c3cnn(Cc4cccc(N)c4)c(=O)c31)CCN(S(C)(=O)=O)C2 [Example 7, 3-(3-aminobenzyl)-5-methyl-7-(methylsulfonyl)-3,5,6,7,8,9-hexahydro-4H-pyrido[4′,3′:4,5]pyrrolo[2,3-d]pyridazin-4-one] |
| > 320 | < 90 | 43.1 (≈ 104 µM) | 1770 | 47.3 | 25.8 | – | – | Cn1c2c(c3cnn(Cc4cccc(N)c4)c(=O)c31)CCN(S(=O)(=O)C1CC1)C2 [Example 9, 3-(3-aminobenzyl)-7-(cyclopropylsulfonyl)-5-methyl-3,5,6,7,8,9-hexahydro-4H-pyrido[4′,3′:4,5]pyrrolo[2,3-d]pyridazin-4-one] |
| 60 to 320 | 100 to 117 | 36.1 (≈ 89.5 µM) | 306 | 93.7 | 4.5 | 36.19 | – | COc1ccc(Cn2ncc3c4c(n(C)c3c2=O)CN(S(C)(=O)=O)CC4)cn1 [Example 2, 3-((6-methoxypyridin-3-yl)methyl)-5-methyl-7-(methylsulfonyl)-3,5,6,7,8,9-hexahydro-4H-pyrido[4′,3′:4,5]pyrrolo[2,3-d]pyridazin-4-one] |
| 43.5 to 60 | < 90 | 0.64 (≈ 1.46 µM) | 317 | 85.3 | 16.8 | – | 0.87* μg/ml | COc1cc(F)c(Cn2ncc3c4c(n(C)c3c2=O)CN(S(C)(=O)=O)CC4)c(F)c1 [Example 6, 3-(2,6-difluoro-4-methoxybenzyl)-5-methyl-7-(methylsulfonyl)-3,5,6,7,8,9-hexahydro-4H-pyrido[4′,3′:4,5]pyrrolo[2,3-d]pyridazin-4-one] |
| 60 to 320 | 100 to 117 | 19 (≈ 45.6 µM) | 303 | 81.4 | 10.5 | – | 17.91* μg/ml | CC(O)c1cccc(Cn2ncc3c4c(n(C)c3c2=O)CN(S(C)(=O)=O)CC4)c1 (centres unmarked) [Example 3, 3-(3-(1-hydroxyethyl)benzyl)-5-methyl-7-(methylsulfonyl)-3,5,6,7,8,9-hexahydro-4H-pyrido[4′,3′:4,5]pyrrolo[2,3-d]pyridazin-4-one] |
| 60 to 320 | < 90 | 9.9 (≈ 22 µM) | 846 | 88.4 | 14 | – | – | Cn1c2c(c3cnn(Cc4cccc(N)c4)c(=O)c31)CCN(S(=O)(=O)c1ccccc1)C2 [Example 11, 3-(3-aminobenzyl)-5-methyl-7-(phenylsulfonyl)-3,5,6,7,8,9-hexahydro-4H-pyrido[4′,3′:4,5]pyrrolo[2,3-d]pyridazin-4-one] |
| 60 to 320 | < 90 | 5.13 (≈ 12.2 µM) | 591 | 96.7 | 13.3 | – | – | COc1cccc(Cn2ncc3c4c(n(C)c3c2=O)CN(S(C)(=O)=O)CC4)c1F [Example 5, 3-(2-fluoro-3-methoxybenzyl)-5-methyl-7-(methylsulfonyl)-3,5,6,7,8,9-hexahydro-4H-pyrido[4′,3′:4,5]pyrrolo[2,3-d]pyridazin-4-one] |
| 60 to 320 | 100 to 117 | 42 (≈ 116 µM) | 1140 | 89.8 | – | – | – | Cn1c2c(c3cnn(Cc4cc[nH]n4)c(=O)c31)CCN(S(C)(=O)=O)C2 [Example 4, 3-((1H-pyrazol-3-yl)methyl)-5-methyl-7-(methylsulfonyl)-3,5,6,7,8,9-hexahydro-4H-pyrido[4′,3′:4,5]pyrrolo[2,3-d]pyridazin-4-one] |
| 60 to 320 | 90 to 100 | 13.9 (≈ 33.5 µM) | 180 | 86.9 | 1.6 | – | 12.85* μg/ml | Cn1c2c(c3cnn(Cc4ccc5c(c4)CCO5)c(=O)c31)CCN(S(C)(=O)=O)C2 [Example 1, 3-((2,3-dihydrobenzofuran-5-yl)methyl)-5-methyl-7-(methylsulfonyl)-3,5,6,7,8,9-hexahydro-4H-pyrido[4′,3′:4,5]pyrrolo[2,3-d]pyridazin-4-one] |
| – | – | 16.2 (≈ 39.2 µM) | 365 | 94.6 | – | – | – | Cn1c2c(c3cnn(Cc4cccc5[nH]ncc45)c(=O)c31)CCN(S(C)(=O)=O)C2 [Example 32, 3-((1H-indazol-4-yl)methyl)-5-methyl-7-(methylsulfonyl)-3,5,6,7,8,9-hexahydro-4H-pyrido[4′,3′:4,5]pyrrolo[2,3-d]pyridazin-4-one] |
| – | – | 1.04 (≈ 2.16 µM) | 986 | 71.4 | – | – | – | COc1ccc(Cn2ncc3c4c(n(C)c3c2=O)CN(S(=O)(=O)c2ccccc2)CC4)c(F)c1 [Example 21, 3-(2-fluoro-4-methoxybenzyl)-5-methyl-7-(phenylsulfonyl)-3,5,6,7,8,9-hexahydro-4H-pyrido[4′,3′:4,5]pyrrolo[2,3-d]pyridazin-4-one] |
| – | – | 41.3 (≈ 98.1 µM) | 512 | 102 | – | – | – | Cn1c2c(c3cnn(Cc4ccsc4C(N)=O)c(=O)c31)CCN(S(C)(=O)=O)C2 [Example 14, 3-((5-methyl-7-(methylsulfonyl)-4-oxo-4,5,6,7,8,9-hexahydro-3H-pyrido [4′,3′:4,5]pyrrolo[2,3-d]pyridazin-3-yl)methyl)thiophene-2-carboxamide] |
